Source: patent EP2960339A1, “Method and kit for the identification of glycosyl transferase substrates” (Technische Universität München, priority 2014, dated 2015)

How the values were obtained:
Assay type in all cases: biochemical
[1] = biological target: T1, VvGT14a (Vitis vinifera, UniProt F6H0R6); details: for Km: monoterpenols at constant UDP-glucose […], UDP-glucose at fixed geraniol 100 µM, Tris-HCl pH 8.5, 30 °C; for kcat: pH 8.5
[2] = biological target: T1, VvGT14a; assay: Substrate screening, radiochemical activity assay with UDP-[14C]glucose; details: for conversion of putative substrate (in words): substrate screening, Figure 3
Method: (§1) In the initial screening, each reaction mixture (200 µL in total) contained Tris-HCl buffer (100 mM, pH 8, 10 mM 2-mercaptoethanol), 37 pmol UDP-[^14C]glucose (0.01 µCi, Biotrend, Köln, Germany), substrate (50 µL of a 1 mg/mL stock solution) and purified protein (0.5-0.8 µg/µL). The reaction mixture was incubated at 30 °C for 18.5 hours. The assays were stopped by adding 1 µL 24% trichloroacetic acid and extracted with 500 µL water-saturated 1-butanol. The organic phase was mixed with 2 mL Pro Flow P+ cocktail (Meridian Biotechnologies Ltd., Epsom, UK) and radioactivity was determined by liquid scintillation counting (LSC, Tri-Carb 2800TR, Perkin Elmer, Waltham MA, USA). Additionally, negative controls without substrate were performed.
(§2) After determining the optimal conditions for the best substrate of each gene, the substrate screening was repeated under these conditions.
(§3) The alleles of VvGT14a-c, 15a-c and 16 were isolated from V. vinifera cultivars and cloned in the expression vector pGEX-4T-1. The recombinant proteins were expressed with an N-terminal GST-tag, affinity purified and verified by SDS-PAGE and Western Blot using GST-specific antibody. Enzyme activity studies were performed with UDP-[^14C]glucose and various putative substrates (terpenols, flavonoids and different mono-alcohols) that are known to be glycosidically bound and present in grapes (Gunata et al., 1988).

[3] = biological target: T2, VvGT15a (Vitis vinifera, UniProt F6GUW0); assay: as above; details: substrate screening, Figure 3
T2 sequence (F6GUW0 entry or part of it): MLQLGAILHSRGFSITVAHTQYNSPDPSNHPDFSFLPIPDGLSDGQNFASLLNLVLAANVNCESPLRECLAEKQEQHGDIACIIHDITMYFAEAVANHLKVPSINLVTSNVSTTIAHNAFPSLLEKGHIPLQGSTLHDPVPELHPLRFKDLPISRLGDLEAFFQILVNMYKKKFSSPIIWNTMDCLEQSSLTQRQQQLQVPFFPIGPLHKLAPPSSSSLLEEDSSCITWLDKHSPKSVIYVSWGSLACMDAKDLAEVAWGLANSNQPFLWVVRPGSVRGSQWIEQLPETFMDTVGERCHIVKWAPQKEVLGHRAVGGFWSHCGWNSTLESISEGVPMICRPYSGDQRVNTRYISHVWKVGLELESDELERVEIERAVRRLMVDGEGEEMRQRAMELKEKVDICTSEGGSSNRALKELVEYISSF
Method: as §1, §2, §3

[4] = biological target: VvGT15b (Vitis vinifera, UniProt F6GUW0); assay: as above; details: substrate screening, Figure 3
Sequence of VvGT15b (F6GUW0 entry or part of it): as above
Method: as §1, §2, §3

[5] = biological target: VvGT15c (Vitis vinifera, UniProt F6GUW0); assay: as above
Sequence of VvGT15c (F6GUW0 entry or part of it): as above
Method: as §1, §2, §3

[6] = biological target: VvGT16 (Vitis vinifera, UniProt F6HTJ4); assay: as above; details: substrate screening, Figure 3
Sequence of VvGT16 (F6HTJ4 entry or part of it): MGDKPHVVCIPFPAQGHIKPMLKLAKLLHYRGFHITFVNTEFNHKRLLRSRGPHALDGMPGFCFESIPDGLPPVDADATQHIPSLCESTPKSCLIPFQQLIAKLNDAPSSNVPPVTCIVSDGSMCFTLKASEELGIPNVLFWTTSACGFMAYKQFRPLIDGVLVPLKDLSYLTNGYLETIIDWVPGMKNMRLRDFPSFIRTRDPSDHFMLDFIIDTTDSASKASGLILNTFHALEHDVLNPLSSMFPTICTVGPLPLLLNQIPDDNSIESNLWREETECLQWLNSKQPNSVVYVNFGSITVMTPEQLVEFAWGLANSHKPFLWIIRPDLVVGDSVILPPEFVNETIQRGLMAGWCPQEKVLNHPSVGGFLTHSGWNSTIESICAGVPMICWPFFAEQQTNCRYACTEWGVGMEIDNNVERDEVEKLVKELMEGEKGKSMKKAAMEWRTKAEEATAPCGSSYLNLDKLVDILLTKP
Method: as §1, §2, §3

[7] = biological target: T1, VvGT14a; assay: Enantioselectivity by chiral phase SPME-GC-MS after hydrolysis of the formed glucoside; details: racemic substrate, prolonged incubation (24 h), aglycone liberated by hydrolysis
Method: (§4) To determine the enantioselectivity of VvGT14 and VvGT15 the enantiomeric ratio of glucosidically bound citronellol and linalool was determined by enantioselective GC-MS. Following the incubation, residual citronellol and linalool were completely removed by extraction with dichloromethane. Citronellyl ß-D-glucoside which remained in the aqueous phase was hydrolyzed by HCl (2 mL, 0.1 M, pH 1) for one hour at 100 °C to release citronellol (Skouroumounis and Sefton, 2000). In case of linalyl ß-D-glucoside an enzymatic hydrolysis (AR 2000, citric acid buffer pH 4, 24 h) was applied due to the instability of linalool in acid solutions (Williams et al., 1982). […] After hydrolysis, citronellol and linalool were analyzed by SPME-GC-MS as described above.
(§5) GC-MS analysis was performed with a Varian GC-450 coupled to a Varian MS-240 ion-trap employing a Phenomenex Zebron ZB-WAXplus column (30 m x 0.25 mm x 0.25 µm, Aschaffenburg, Germany). Helium flow rate was 1 mL/min. The analysis was carried out in split mode (liquid injections) or splitless mode (SPME measurements) with 220 °C injector temperature. EI (electron impact ionization)-MS spectra were recorded from m/z 40 to 300 (ionization energy 70 eV; trap temperature 170 °C). The oven temperature program was 60 °C (3 min), 10 °C/min up to 250 °C (5 min). In case of SPME measurements, liberated aglycones were isolated for 10 min at 60°C using a fiber coated with a 85 µm film of polyacrylate (SUPELCO, Bellefonte, USA). After extraction the SPME fiber was desorbed for 10 min at 250°C in the injection port of the GC-MS system and the column oven program was carried out as described above. Enantioselective GC-MS analysis was performed with a Varian GC-450 coupled to a Varian MS-240 ion-trap. The column was a DiAcß (heptakis-(2,3-di-O-acetyl-6-O-tert.-butyldimethylsilyl)-ß-cyclodextrin), 26 m x 0.32 mm i.d. with a 0.1 µm film. […] GC-MS measurements were recorded in full scan mode. Selected ion monitoring (SIM) mode was used for quantification.

[8] = biological target: T2, VvGT15a; assay: as above; details: racemic substrate, prolonged incubation (24 h), aglycone liberated by acid hydrolysis
Method: as §4, §5

[9] = biological target: T1, VvGT14a; assay: Activity based profiling using a physiologic aglycone library (radio-TLC, GC-MS); details: Figure 7
Method: For the preparation of aglycone extracts 50 g (fresh weight) grape skins or 4 g (fresh weight) inflorescences of Gewurztraminer Gm 11-18 were ground to a fine powder in liquid nitrogen. The isolation of glycosides was carried out as described above (see metabolite analysis). The methanolic fraction, which was obtained after SPE, was enzymatically hydrolysed. Therefore, the dried sample was dissolved in citric-acid buffer (0.1 M, pH 4), 50 mg AR 2000 (an enzyme preparation with glucosidase activity prepared from Aspergillus niger; DSM Food Specialties Beverage Ingredients, Delft, Netherlands) was added and incubated for 24 h with exclusion of light. The liberated aglycones were extracted by 20 mL methyl-tert-butyl ether and the organic phase was reduced to 1000µL using a gentle stream of nitrogen.
Aliquots of this aglycone extract were incubated with UDP-glucose and various VvGT-enzymes. Optimum conditions at 30 °C for 24 hours were applied. Each solution contained 100 µL purified enzyme, 100-150 µL Tris-HCl buffer (100 mM, pH7.5 or 8.5, 10 mM 2-mercaptoethanol), 37 pmol UDP-[^14C]glucose (0.01 µCi) and 50-100 µL extract (dissolved in methyl-tert-butylether). The buffer was mixed with the extract and the organic solvent was gently vaporized with nitrogen. The missing volume was adjusted with buffer before the enzyme was added. The reaction was stopped by adding 1 µL 24% trichloroacetic acid and extracted with 500 µL ethyl acetate. After termination of the reaction free aglycones, which were not converted by VvGT14 and VvGT15, were measured via SPME-(Solid Phase Microextraction)-GC-MS. These residual, free aglycones were completely removed by extraction with dichloromethane. Enzymatically formed glucosides were extracted by ethyl acetate, which was removed under nitrogen. The residue was dissolved in methanol and analyzed by LC-MS to detect the generated monoterpenol glucosides. Enzymatic hydrolysis of the glucosides was performed using AR 2000 and 2 mL citric-acid-buffer. After hydrolysis, a 100 µL aliquot was used to detect volatile aglycones via SPME-GC-MS. The remaining solution was extracted with methyl-tert-butyl ether and reduced under nitrogen to approximately 200 µL. One µL were measured by GC-MS via liquid injection.
Assays containing UDP-[^14C]glucose and aglycone libraries or substrates were performed as described above and subsequently extracted with 500 µL ethyl acetate. The organic solvent was vaporized and the pellet was re-suspended in 10 µL methanol and was applied on Silica Gel 60 F254 plates (Merck, Darmstadt, Germany). The dried plates were developed in a solvent system chloroform:acetic acid:water (50/45/5, v:v:v). Plates were dried and analyzed by digital autoradiograph (digital autoradiograph, EG&G Berthold, Wildbad, Germany).
An aglycone library of the two tissues was obtained by enzymatic hydrolysis of the glycosides followed by liquid-liquid extraction of the released alcohols and acids. […] The formed glycosides were separated by thin layer chromatography (TLC) and visualized by radiodetection whereas identification could be achieved by LC-MS and NMR analysis and, after hydrolysis, by GC-MS and LC-MS (Figure 6).

[10] = citronellol enantiomers, Figure 12, highest level of extractable radioactivity = 100 %

T1 sequence (F6H0R6 entry or part of it): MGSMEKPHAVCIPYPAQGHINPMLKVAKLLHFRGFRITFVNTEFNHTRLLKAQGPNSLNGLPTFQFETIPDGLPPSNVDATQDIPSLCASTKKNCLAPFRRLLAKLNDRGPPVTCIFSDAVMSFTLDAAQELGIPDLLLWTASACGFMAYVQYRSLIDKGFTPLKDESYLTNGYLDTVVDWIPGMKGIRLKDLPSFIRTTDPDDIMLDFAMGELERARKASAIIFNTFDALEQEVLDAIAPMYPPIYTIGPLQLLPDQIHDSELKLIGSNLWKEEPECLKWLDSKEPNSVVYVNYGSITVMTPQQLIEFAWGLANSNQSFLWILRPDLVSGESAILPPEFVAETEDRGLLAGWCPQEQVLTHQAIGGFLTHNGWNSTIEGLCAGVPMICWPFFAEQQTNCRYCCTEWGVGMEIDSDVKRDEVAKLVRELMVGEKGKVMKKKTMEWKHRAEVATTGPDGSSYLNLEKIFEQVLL

Row | Compound | Km [1] | kcat [1] | relative specific activity [2, 10] | conversion of putative substrate (in words) [2] | conversion of putative substrate (in words) [3] | conversion of putative substrate (in words) [4] | relative specific activity [5, 10] | conversion of putative substrate (in words) ([5]; substrate screening, Figure 3) | conversion of putative substrate (in words) [6] | enantiomeric preference (in words) [7] | enantiomeric preference (in words) [8] | aglycone liberated by enzymatic hydrolysis of the glucosides formed from the grape skin aglycone library (in words) [9]
1 | CC(C)=CCCC(C)CCO (racemic) [citronellol (rac), (R,S)-3,7-dimethyl-6-octen-1-ol] | 9 ± 0.3 µM | 0.02 s⁻¹ | 100% | preferred | glucosylated primarily | glucosylated primarily | 100% | glucosylated primarily | transformed | no enantio-discrimination | no enantio-discrimination | remarkable quantities
2 | C=CC(C)(O)CCC=C(C)C (racemic) [linalool (rac), (R,S)-3,7-dimethyl-1,6-octadien-3-ol] | 47 ± 0.1 µM | 0.0003 s⁻¹ | – | catalytic activity | – | – | – | – | – | slight enrichment of the R-enantiomer | – | remarkable quantities
